Measurements taken from patent US11523610B2, “Regulating plant growth using a diapocarotenoid” (King Abdullah University of Science and Technology, priority 2018, dated 2022).

Tests used:
[1] = system: Arabidopsis seedlings (anchor roots after RAM excision); assay: ANR formation after root apical meristem excision (ANR-RE); format: in vivo
Source text: (§1) ANRs were counted in seedlings vertically grown on half strength MS (with 0.5% sucrose +1% agar, 0.5 g/L MES, pH 5.7) media 8 days post-stratification (dps) using a dissection microscope. To investigate ANR formation after root apical meristems (RAM) excision (ANR-RE), RAM of seedlings were excised using sterile scalpels at 5 dps and then grown for another 3 days prior to counting the number of emerged ANRs. RAM of seedlings were excised at 8 dps and then grown for another 3 days prior to counting the number of emerged LRs. For determining the effect of anchorene on lateral roots, the number of emerged lateral roots were counted using a dissection microscope at 8 dps. For primary root length measurements, seedlings were measured using the publicly available ImageJ software (downloaded from rsbweb.nih.gov/ij/) after taking digital photographs. For adventitious root assay, the number of emerged adventitious roots per plant were counted after 5 days of treatment on plates with or without anchorene.
ANR formation under carotenoid-deficient conditions was monitored to determine the role of endogenous carotenoids in ANR development. […] Therefore, ANR formation was monitored after RAM excision (ANR-RE) to stimulate ANR development. ANR measurements were used as an indicator of ANR formation capacity under different conditions. […] Norflurazon (NF) and 2-(4-chlorophenylthio)-triethylamine hydrochloride (CPTA), which block phytoene desaturation and lycopene cyclization, respectively were tested (FIG. 6A). The effect of D15, an inhibitor of CCDs was also investigated. Application of D15 to Arabidopsis seedlings is known to lead to an increase in carotenoid levels.

[2] = system: Arabidopsis root growth (Col-0 seedlings); assay: Primary root length of Arabidopsis seedlings on treated half MS agar plates; format: in vivo; conditions: 25 μM, 7 dps
Experimental: β-cyclocitral, β-ionone and D′orenone (β-Apo-13-caroteneone) (FIG. 1A) were purchased from Buchem (Netherlands). Diapo1, Diapo2, Diapo3, Diapo4, Diapo5, and Diapo6 (FIG. 1B) were synthesized by Buchem (Netherlands). Diapo3 was also synthesized together with D6-anchorene and anchorene derivatives according to the protocol of SCHEME 2. Apocarotenoids and diapocarotenoids were dissolved in acetone to make stock solutions (10 mM). For the screening experiments, each chemical was diluted in half strength Murashige and Skoog (MS) media (with 0.5% sucrose+1% agar, 0.5 g/L MES, pH 5.7) to reach indicated concentrations of 25 μM and 5 μM. A stock solution of 10 mM GR24 (Chiralix, Netherlands) was also made by diluting GR24 in acetone. Stock solutions of D15 (100 mM), Norflurazone (5 mM), and CPTA (50 mM) were made in dimethyl sulfoxide (DMSO). For experiments, these compounds were diluted in concentrations of 125 μM D15, 500 nM Norflurazone, or 100 μM CPTA, respectively. 1-Naphthaleneacetic acid (NAA) and N-1-Naphthylphthalamic Acid (NPA) were purchased from Sigma-Aldrich (Germany) and dissolved in water to make 1 mM stock solutions. For NAA and NPA treatments, media containing 0.1 μM NAA and 1 μM NPA were used. Unless otherwise noted, all commercially available compounds were used as provided without further purification.
Sterilized Col-0 and mutants seeds were kept at 4° C. in darkness for 3 days to stimulate seed germination, and then sown on half strength MSO plates (with 0.5% sucrose +1% agar, 0.5g/L MES, pH 5.7) supplemented with the indicated chemicals as described below or in the Figures. Plates were vertically grown in PERCIVAL® growth chambers under long day (16 h light/8 h dark, 22° C., 60% relative humidity, light density: 4000 LUX) LED white light [HYPERIKON® 16 W LED Light Bulb A21, 16 W (100 W Equivalent), CRI92, 1620 Lumens, 4000K (Daylight Glow)] conditions. Light fluorescence rates were measured using a digital LUX meter ([…]® 5025).
as §1
Six previously identified or predicted diapocarotenoids with chain lengths ranging from C9 to C15 (Diapo1-6) (FIG. 1B) and 3 apocarotenoids (FIG. 1C) were selected to identify new carotenoid-derived signals involved in root development). These compounds were selected because they are available and stable at ambient conditions. Diapo1 (C9) is the expected product formed upon cleavage of all-trans-β-apo-10′ carotenal. Diapo2 (C10) results from cleaving the C7, C8 and C15, C15′ double bonds in different carotenoids and is produced by cyanobacterial retinal-forming enzymes from Cm-apocarotenoids. Diapo3 (C10) is a structural isomer of Diapo2 and a predicted cleavage product that can be formed by cutting the C11, C12 and C11′, C12′ bonds in almost all plant carotenoids (FIGS. 1A, 1B and 17). Diapo4 (C12) results from cleaving the C7, C8 and C13′, C14′ bonds in many carotenoids, and is formed by the CCD1 from apo-10′-lycopenal.

[3] = system: Arabidopsis seedlings (anchor roots); assay: Anchor root (ANR) emergence/formation in seedlings without RAM excision; format: in vivo; conditions: for activity in promoting ANR formation: anchorene isomer and derivatives, concentrations as indicated in FIGS. 3G-H
Experimental: Sterilized Col-0 and mutants seeds were kept at 4° C. in darkness for 3 days to stimulate seed germination, and then sown on half strength MSO plates (with 0.5% sucrose +1% agar, 0.5g/L MES, pH 5.7) supplemented with the indicated chemicals as described below or in the Figures. Plates were vertically grown in PERCIVAL® growth chambers under long day (16 h light/8 h dark, 22° C., 60% relative humidity, light density: 4000 LUX) LED white light [HYPERIKON® 16 W LED Light Bulb A21, 16 W (100 W Equivalent), CRI92, 1620 Lumens, 4000K (Daylight Glow)] conditions. Light fluorescence rates were measured using a digital LUX meter (PEAKTECH® 5025).
as §1
Prior to the anchor root (ANR) measurements, seeds from 10 ecotypes (Po-0, Is-0, Wu-0, Col-0, Cvi-0, Hi-0, Ove-0, Sav-0, Ler and Kin-0) were harvested from plants grown in long-day photoperiod conditions (16h light/8 h darkness, 22° C., 60% humidity). Seeds of all 10 ecotypes were surfaced sterilized and incubated in sterile water at 4° C. for 8 days, for uniform germination. Natural ANR emergence and ANRC was measured as described above (Anchor root assays) for each ecotype. 20 μM anchorene was used to test the responses of the Po-0 and Is-0 ecotypes to anchorene.
Excision of the root apical meristems (RAM) triggers ANR formation (FIGS. 3C-D). […] About 9% of control Col-0 seedlings developed ANRs under normal conditions, while approximately 50% formed ANRs upon RAM excision (FIGS. 4B-C). […] Higher anchorene concentrations (10 and 20 μM) enhanced this ratio to 97% and 100%, respectively (FIGS. 4B-C). There was also an increase in the number of seedlings that developed two ANRs from 0% in the untreated control to approximately 80% upon application of 20 μM anchorene (FIGS. 4B-C). Using a wide range of concentrations, a dose-response curve was established in the presence and absence of RAM excision. […] Thus, the promotion of ANRs is not caused by inhibiting primary root growth.

pDR5::LUC seedlings = assay: Luciferase assay in pDR5::LUC auxin marker line; format: in vivo, Arabidopsis; conditions: 1 μM NF, 20 μM anchorene
Experimental: Luciferase activity was assayed as previously described. Briefly, 1 mL of 5 mM Potassium Luciferin (Gold Biotechnology®) dissolved in water was directly applied to pDR5:LUC seedlings grown vertically on treated half strength MS plates. The luciferin solution was allowed to dry for 5-10 minutes in the dark, at room temperature. Seedlings were then imaged using a Lumazone™ CA automated Chemiluminescence system. Seven minute exposure times were used.
A pDR5::LUC line, which marks LR prebranch sites, was used to track ANR development. […] ANR primordia initiation was observed as early as 3 dps, in anchorene treated pDR5::LUC and 158 pDR5rev::GFP seedling (FIGS. 5A-C).

pDR5rev::GFP seedlings = assay: Confocal microscopy of pDR5rev::GFP auxin marker line; format: in vivo, Arabidopsis; conditions: single compound, 20 μM anchorene, 1 μM NF
Source text: To examine pDR5Rev::GFP fluorescence at the collet region, live seedlings were directly used for laser scanning confocal microscopy (Zeiss LSM 510 microscope) examination.
For fluorescence intensity quantification of pDR5Rev::GFP and pPIN3::PIN3-GFP marker lines, ImageJ software (rsbweb.nih.gov/ij/) was used after taking confocal microscopy photos. All calculations are background subtracted.

[4] = LC-MS quantification of anchorene in Arabidopsis tissues
Experimental: About 30 mg (30-40 mg) of freeze-dried and ground Arabidopsis seedlings tissues were extracted using 1 mL of acetonitrile with anti-oxidant [0.1% butylated hydroxytoluene (BHT)] for 15 min in an ultrasonic bath (Branson® 5510EDTH, 25° C., 15 min), followed by centrifugation for 8 min at 13000 rpm at 4° C. The collected supernatant was dried using a concentrator (Labconco RapidVap® System). The extract was derivatized (SCHEME 3) with 50 μL of derivatization solution containing 5 mg/mL derivatization reagent (N^2,N^2,N^4,N^4-tetraethyl-6-hydrazineyl-1,3,5-triazine-2,4-diamine) (Chemspace) and 1% formic acid in methanol at 37° C. for 15 min. Then the sample solution was diluted to 150 μL with 1% formic acid in methanol and filtered by using 0.22 μm filter before LC-MS analysis.
The quantitative analysis of derivative anchorene were carried out on HPLC-Q-Trap MS/MS. Chromatographic separation was achieved on an Acquity UPLC CSH C18 column (50×2.1 mm; 1.7 μm; Waters) using a mobile phase consisting of water: acetonitrile (95:5, v:v, A) and pure acetonitrile (B), both containing 0.1% formic acid. A gradient was applied, starting with 10% B and increasing to 40% B over 5 min. Then 15% B was increased
within 10 min followed by an increase of 45% B over 2 min. And then 100% B was maintained for 10 min. To equilibrate the column before the next run, the mobile phase was adjusted back to 10% B in 1 min and this concentration was maintained for 8 min prior to the next sample injection. A flow rate of 0.15 mL/min and a column temperature of 40° C. were maintained throughout the run. The eluent of the column was introduced to the mass spectrometer using turbo spray ion source in positive mode. The injection volume was 10 μL. The conditions of the mass spectrometer were set as following: curtain gas: 30; ion spray voltage: 5 kV; temperature: 400° C.; ion source gas 1: 30; ion source gas 2: 40; declustering potential, 55; entrance potential: 10; collision energy: 25; collision cell exit potential: 10. […]

[5] = 1 μM NF, 100 μM CPTA, 150 μM D15, RAM cut at 5 DAG, grown 3 more days

For CCN(CC)CCSc1ccc(Cl)cc1.Cl [CPTA, 2-(4-chlorophenylthio)-triethylamine hydrochloride], the ANR-RE [1, 5] was “strongly reduced”.
With C\C(C=O)=C/C(C)=C/C=C/C=O [Diapo2, 8,15-diapocarotene-8,15-dial] the “reduction in primary root growth” value [2] was “approximately 80%” and the ANR formation ([3]; 25 μM (FIGS. 3G-H)) was “modest increase”.
With CC(/C=C/C=O)=C\C=C\C=O [Diapo1, 10,14′-diapocarotene-10,14′-dial] the “inhibition of primary root growth” value [2] was “weak inhibition”.
In the case of C\C(=C/C=C/C=C(\C)CO)CO [AR di-alcohol, (2E,4E,6E)-2,7-dimethylocta-2,4,6-triene-1,8-diol], the “activity in promoting ANR formation” value [3] is reported as “inactivity”.
In the case of CC1=C[C@H](O/C=C2/C(=O)O[C@@H]3c4ccccc4C[C@H]23)OC1=O [GR24], the “ANR formation (ANR-RE)” value ([1]; 1 μM GR24) is reported as “inhibited ANR formation”.
For CC1=CC(=O)CC(C)(C)[C@@]1(O)/C=C/C(C)=C\C(=O)O [ABA, abscisic acid], the ANR-RE ([1]; 0.1 and 0.5 μM ABA) was “did not impact”.
In the case of O=C(O)Cc1cccc2ccccc12 [NAA, 1-Naphthaleneacetic acid], the ANR-RE ([1]; 0.1 μM NAA, 1 μM NPA) is reported as “greatly increased”.
With C\C(=C/C=C/C=C(\C)C(=O)O)C(=O)O [AR di-acid, (2E,4E,6E)-2,7-dimethylocta-2,4,6-trienedioic acid] the “activity in promoting ANR formation” value [3] was “inactivity”.
In the case of C\C(C=O)=C/C=C/C=C/C=C(C)/C=C(\C)C=O [Diapo5, 8,12′-diapocarotene-8,12′-dial], the “reduction in primary root growth” value [2] is reported as “approximately 80%”.
With C\C(C=O)=C/C(C)=C/C=C/C=C/C=O [Diapo4, 8,14′-diapocarotene-8,14′-dial] the “inhibition of primary root growth” value [2] was “weak inhibition”.
In the case of CNc1cnn(-c2cccc(C(F)(F)F)c2)c(=O)c1Cl [NF, Norflurazon], the ANR-RE [1, 5] is reported as “strongly reduced”, the “LUC signal in the collet” value (pDR5::LUC seedlings) is reported as “clear LUC signal was detected” and the “GFP signal at the collet / ANR primordia” value (pDR5rev::GFP seedlings) is reported as “No significant reduction”. For the same molecule, the “anchorene content of whole seedlings after NF treatment” value ([4]; 24 hours NF treatment, 2 μM NF) was “decreases” and the “anchorene content of whole seedlings after NF treatment” value ([4]; continuous NF treatment) was “greatly decreases”.
In the case of O=C(O)c1ccccc1C(=O)Nc1cccc2ccccc12 [NPA, N-1-Naphthylphthalamic Acid], the ANR-RE ([1]; 0.1 μM NAA, 1 μM NPA) is reported as “completely blocked”.
In the case of CCOC(=O)/C(C)=C/C=C/C=C(\C)C(=O)OCC [AR di-ethyl ester, diethyl (2E,4E,6E)-2,7-dimethylocta-2,4,6-trienedioate], the “activity in promoting ANR formation” value [3] is reported as “inactivity”.
